Reference: PMC9696085, “Fully Symmetric Cyclodextrin Polycarboxylates: How to Determine Reliable Protonation Constants from NMR Titration Data” (International Journal of Molecular Sciences, 2022)
Like-named read-outs stand apart in the source and are kept apart here.

Legend:
[1] = 1H NMR-pH titration, protonation constants; type: physicochemical
Procedure: The pH meter readings were recorded using a Metrohm pH meter, equipped with a Metrohm 6.0234.110 combined glass electrode. A four-point calibration using pH 2.00, pH 4.00, pH 7.00 and pH 11.00 standard buffer solutions were performed directly before pH adjustments. The pH measurements were performed in 25 mL vessels with proper stirring before transferring 600 μL sample solutions into the NMR tubes. Solutions were prepared in the pH range of 1.50–8.70 with 0.30 increments using 0.9 M, 0.5 M and 0.1 M sodium hydroxide and hydrochloric acid solutions in H2O:D2O = 9:1.
For structural characterizations of CD derivatives in D2O, a 600 MHz Varian DDR NMR spectrometer equipped with a 5 mm inverse-detection gradient probe or a 400 MHz Varian Mercury Plus spectrometer equipped with a 5mm Varian 400 Automation Triple Resonance Broadband Pulsed Field Gradient probe was used. For NMR-pH titrations, the same instruments were used. The pH-dependent series of ^1H NMR spectra were recorded in a solvent mixture of H2O:D2O = 9:1 by volume, where the constant ionic strength and the buffer capacity were adjusted using 0.05 M sodium chloride and 0.05 M acetic acid-d4. An appropriate amount of CD was weighed to obtain a 1 mM solution and finally one drop of methanol was added as a chemical shift reference (3.310 ppm). The water resonance was diminished by the dpfgse pulse sequence or presaturation. All the spectra were processed using the MestReNova v9.0.1-13254 (Mestralab Research, S.L., Santiago de Compostela, Spain) software.
The standard macroscopic evaluation of NMR-pH titration curves (Equation (3) in Section 2.2) was performed with the following software tools: Microcal Origin Pro 8 (OriginLab Corp., Northampton, MA, USA), HypNMR2018 [38], OPIUM [39] and home-written R scripts (R version 4.1.2, The R Foundation, Vienna, Austria) using the nls module. The equidistant macroscopic (Equation (8)) and Q-fitting (Equations (4) and (11)) models were fitted both by Origin and our R-scripts to verify their equivalent performance regarding statistical description of the parameter estimates. The microscopic cluster expansion model in Section 2.5 requires summation of >100 variables which is unfeasible in the form of an explicit model function required by commercial data-fitting software like Origin. The enumeration of microspecies was therefore accomplished in a custom-written R script. To assess the robustness of our data-fitting model as well as the error propagation of the optimized log k and pε parameters to the derived log K macroconstants, Monte Carlo simulations on >1000 replicates were performed in R.

[2] = cited from earlier work
[3] = parameters: method as in doi:10.1021/jp0340820; details: cited from earlier work
[4] = ED macro, Eq. (7) evaluation, calculated (*)
[5] = Macroscopic, Eq. (2) evaluation
[6] = Macroscopic, Eq. (2) evaluation, calculated (*)
[7] = Microscopic, Eq. (3) evaluation, calculated (*)
[8] = Literature, ref Hawkins, Perrin, Inorg. Chem. 2 (1963) 843

log K1 ([1]; ED macro, Eq. (7) evaluation)	log K2 ([1]; ED macro, Eq. (7) evaluation)	log kA [1, 4]	pεAB [1, 4]	log K1 [1, 5]	log K2 [1, 5]	log kA [1, 6]	pεAB [1, 6]	log K1 [1, 7]	log K2 [1, 7]	Molecule	log K1 [2, 8]	log K2 [2, 8]	log kA [2, 8]	pεAB [2, 8]	pε ([2]; earlier literature, almost independent carboxylate protonations)	log kA ([2]; literature value)	pε (carboxylate interactions) [3]
4.631 (0.005)	3.883 (0.005)	4.330 (0.005)	0.15 (0.01)	4.62 (0.06)	3.87 (0.07)	4.32 (0.06)	0.15 (0.01)	4.630 (0.005)	3.88 (0.01)	O=C(O)CCSSCCC(=O)O [DTDPA, 3,3′-dithiodipropionic acid, reference compound]	4.47	3.88	4.16	-0.01	≈ 0	4.16	
										oxidized glutathione							≈ 0.1
